Measured values as given in the OligoGym collection.
After the bases stand the sugars from the 5' end (letter, count) and the backbone: PS all phosphorothioate, else s phosphorothioate and o phosphodiester by linkage. Methylation of C is not given here. l = locked nucleic acid (LNA); d = 2'-deoxy (DNA)

Molecular target: SNHG14
Settings: ASO
[1] = Mouse Primary Neuronal Cell, 0.005 µM

Sequence | target mRNA inhibition (Human Neuronal Cell, 7.5 µM) [%] | target mRNA inhibition (Human Neuronal Cell, 0.2 µM) [%] | target mRNA inhibition (Human Neuronal Cell, 1 µM) [%] | further results
GTTTCCATCTACTATTAA (sugars llldldddddddllddll, PS) | 28 |  |  | 
GTTTCCATCTACTATTAAT (sugars lddddlddddddllddlll, PS) | 59 |  |  | 
GTTTCCATCTACTATTAAT (sugars ldldllddddddddddlll, PS) | 59 |  |  | 
TAAAATTATTTATACACCA (sugars l2 d3 l1 d7 l6, PS) | 47 |  |  | 
TAAAATTATTTATACACCA (sugars l5 d8 l2 d1 l3, PS) | 65 |  |  | 
TAAAATTATTTATACACCAT (sugars ldddlllddddddllldlll, PS) | 34 |  |  | 
TAAAATTATTTATACACCAT (sugars llldldldddddddlldlll, PS) | 21 |  |  | 
TAAAATTATTTATACACCAT (sugars lllldllddddddlllldll, PS) | -13 |  |  | 
TAAAGATCCCATCACTC (sugars l3 d11 l3, PS) |  | 44 | 50 | 
TAATCCTATTCCAACT (sugars l3 d10 l3, PS) |  | 16 | 17 | 
TACACAATCAACAACAAAT (sugars l4 d13 l2, PS) |  | 25 | 41 | 
TACACTTAATTATACTTC (sugars l2 d12 l4, PS) |  | 26 | 42 | 
TACACTTAATTATACTTCCA (sugars ldlddllddddddlddddll, PS) | 59 |  |  | 
TACACTTAATTATACTTCCA (sugars lldldlddddddddddddll, PS) | 60 |  |  | 
TACATCTCATACTTGCT (sugars l2 d11 l4, PS) |  | -18 | 2 | target mRNA inhibition (Human Neuronal Cell, 5 µM): 18%; target mRNA inhibition [1]: 95%
TACCTACATCTCATACT (sugars l2 d13 l2, PS) |  | -1 | 0 | target mRNA inhibition (Human Neuronal Cell, 5 µM): 11%; target mRNA inhibition [1]: 78.6%
TACCTACATCTCATACTT (sugars l4 d12 l2, PS) |  | -19 | 3 | target mRNA inhibition (Human Neuronal Cell, 5 µM): 7%; target mRNA inhibition [1]: 94.8%
TACTATCTTTGACATTC (sugars l4 d11 l2, PS) |  | 48 | 59 | 
TACTCTGCAATACACC (sugars l1 d1 l1 d10 l3, PS) | 60 |  |  | 
TACTCTGCAATACACC (sugars l1 d1 l1 d11 l2, PS) | 50 |  |  | 
TACTCTGCAATACACC (sugars l2 d2 l1 d9 l2, PS) | 61 |  |  | 
TACTCTGCAATACACC (sugars l2 d12 l2, PS) | 59 |  |  | 

Sequence | target mRNA inhibition (Human Neuronal Cell, 7.5 µM) [%] | target mRNA inhibition (Human Neuronal Cell, 0.2 µM) [%] | target mRNA inhibition (Human Neuronal Cell, 1 µM) [%] | further results
TACTCTGCAATACACC (sugars l3 d11 l2, PS) | 55 |  |  | 
TACTCTGCAATACACCA (sugars l1 d1 l1 d12 l2, PS) | 55 |  |  | 
TACTCTGCAATACACCA (sugars l1 d10 l1 d3 l2, PS) | 59 |  |  | 
TACTCTGCAATACACCA (sugars l2 d10 l2 d1 l2, PS) | 60 |  |  | 
TATACACCATCATTATA (sugars l4 d11 l2, PS) |  | 41 | 60 | 
TATACCTTTCTTTAACCCTT (sugars ldddddldddddddddldll, PS) | 66 |  |  | 
TATAGACCCAAACTAT (sugars l3 d10 l3, PS) |  | 15 | 26 | 
TATCTCATTTACATTATT (sugars l4 d12 l2, PS) |  | 27 | 43 | 
TATTCTTACCGTCTTTA (sugars l3 d11 l3, PS) |  | 40 | 63 | 
TATTGATTCAATTCCCT (sugars l2 d2 l1 d10 l2, PS) | 55 |  |  | 
TATTGATTCAATTCCCT (sugars lldldddddddddldll, PS) | 69 |  |  | 
TCACACCTATTATATAA (sugars l3 d11 l3, PS) |  | 11 | 16 | 
TCACTGTTCTGACTTT (sugars l3 d10 l3, PS) |  | 19 | 18 | target mRNA inhibition (Human Neuronal Cell, 5 µM): 28%
TCACTTTCCAGATATCA (sugars l2 d13 l2, PS) |  | 23 | -6 | target mRNA inhibition (Human Neuronal Cell, 5 µM): 17%; target mRNA inhibition [1]: 46.6%
TCACTTTCCAGATATCA (sugars l4 d11 l2, PS) |  | 17 | 5 | target mRNA inhibition (Human Neuronal Cell, 5 µM): 15%; target mRNA inhibition [1]: 92%
TCATATTGAACCAATT (sugars l4 d10 l2, PS) |  | 59 | 71 | 
TCATCCCTCCAAGAAA (sugars l4 d10 l2, PS) |  | -12 | -17 | target mRNA inhibition (Human Neuronal Cell, 5 µM): -46%
TCCATTTATTTCCATTTAT (sugars ldldlldddddddldddll, PS) | 55 |  |  | 
TCCATTTATTTCCATTTATT (sugars l2 d11 l2 d3 l2, PS) | 58 |  |  | 
TCTCAAAGATCATTCT (sugars l4 d10 l2, PS) |  | 54 | 62 | 
TCTCAAAGATCATTCTC (sugars l3 d11 l3, PS) |  | 57 | 63 | 
TCTCAGCTTCTTCAAAT (sugars l2 d12 l3, PS) |  | 26 | 23 | 

Sequence | target mRNA inhibition (Human Neuronal Cell, 7.5 µM) [%] | target mRNA inhibition (Human Neuronal Cell, 0.2 µM) [%] | target mRNA inhibition (Human Neuronal Cell, 1 µM) [%] | further results
TCTCCAACATAGATCCT (sugars l4 d11 l2, PS) |  | 33 | 46 | 
TCTGTATACACCATCCC (sugars l1 d11 l1 d2 l2, PS) | 54 |  |  | 
TCTGTATACACCATCCC (sugars l2 d10 l1 d2 l2, PS) | 61 |  |  | 
TCTTTCCATTTATTTCCATT (sugars l2 d3 l1 d11 l3, PS) | 56 |  |  | 
TCTTTGACATTCCATCTC (sugars l4 d12 l2, PS) |  | 49 | 56 | 
TGAAAATCTCAACTACCAT (sugars l1 d3 l2 d10 l3, PS) | 43 |  |  | 
TGAAAATCTCAACTACCAT (sugars l1 d11 l1 d2 l4, PS) | 24 |  |  | 
TGAAAATCTCAACTACCAT (sugars lddldlddddddldddlll, PS) | 19 |  |  | 
TGAAACATTCTTCCCAC (sugars l2 d12 l3, PS) |  | 11 | 13 | 
TGCAAATACCTCTTCA (sugars l4 d10 l2, PS) |  | 64 | 69 | 
TGTACTTACACATCTA (sugars l3 d10 l3, PS) |  | 42 | 34 | 
TGTTTATACCCTTTCCAA (sugars l1 d12 l2 d1 l2, PS) | 58 |  |  | 
TGTTTATACCCTTTCCAA (sugars lddlddddddddlddlll, PS) | 61 |  |  | 
TGTTTATACCCTTTCCAA (sugars lldldlddddddldddll, PS) | 54 |  |  | 
TGTTTCCATCTACTATTA (sugars lddddlddddddddldll, PS) | 62 |  |  | 
TGTTTCCATCTACTATTA (sugars lddddldddddddlddll, PS) | 62 |  |  | 
TGTTTCCATCTACTATTA (sugars lddldlddddddddddll, PS) | 59 |  |  | 
TTAAGCTTTCACCTAT (sugars l2 d10 l4, PS) |  | 37 | 54 | 
TTACACTTAATTATACTTCC (sugars ldddldldddddddllddll, PS) | 62 |  |  | 
TTACACTTAATTATACTTCC (sugars lddlldldddddddddddll, PS) | 68 |  |  | 
TTACACTTAATTATACTTCC (sugars ldldldldddddddddldll, PS) | 65 |  |  | 
TTACCTACATCTCATACTT (sugars l2 d15 l2, PS) |  | -5 | -7 | target mRNA inhibition (Human Neuronal Cell, 5 µM): 7%; target mRNA inhibition [1]: 79%

Sequence | target mRNA inhibition (Human Neuronal Cell, 7.5 µM) [%] | target mRNA inhibition (Human Neuronal Cell, 0.2 µM) [%] | target mRNA inhibition (Human Neuronal Cell, 1 µM) [%] | further results
TTATACCTTTCTTTAACCCT (sugars l1 d5 l1 d11 l2, PS) | 59 |  |  | 
TTATACCTTTCTTTAACCCT (sugars ldddldldddddddldddll, PS) | 62 |  |  | 
TTATACCTTTCTTTAACCCT (sugars ldldddddddddddddldll, PS) | 53 |  |  | 
TTATACCTTTCTTTAACCCT (sugars ldlddddddddddlddddll, PS) | 60 |  |  | 
TTATAGCCATTCTATCT (sugars l1 d1 l1 d10 l4, PS) | 55 |  |  | 
TTATAGCCATTCTATCT (sugars l1 d1 l2 d11 l2, PS) | 66 |  |  | 
TTATAGCCATTCTATCT (sugars l2 d10 l2 d1 l2, PS) | 56 |  |  | 
TTATAGCCATTCTATCT (sugars l2 d11 l1 d1 l2, PS) | 56 |  |  | 
TTATAGCCATTCTATCT (sugars l3 d10 l1 d1 l2, PS) | 59 |  |  | 
TTATAGCCATTCTATCT (sugars ldddldddddddlddll, PS) | 31 |  |  | 
TTATAGCCATTCTATCT (sugars ldddlddddddllddll, PS) | 16 |  |  | 
TTATAGCCATTCTATCT (sugars lddlddddddddlddll, PS) | 17 |  |  | 
TTATAGCCATTCTATCT (sugars lddldddddddldddll, PS) | 36 |  |  | 
TTATAGCCATTCTATCT (sugars lddldddddddldllll, PS) | 22 |  |  | 
TTATAGCCATTCTATCT (sugars lddllddddddddldll, PS) | 62 |  |  | 
TTATAGCCATTCTATCT (sugars lddllddddddldldll, PS) | 15 |  |  | 
TTATAGCCATTCTATCT (sugars ldldddddddddldlll, PS) | 53 |  |  | 
TTATAGCCATTCTATCT (sugars ldldlddddddldddll, PS) | 47 |  |  | 
TTATAGCCATTCTATCT (sugars ldldlddddddlddlll, PS) | 37 |  |  | 
TTATAGCCATTCTATCT (sugars ldlldddddddldddll, PS) | 43 |  |  | 
TTATAGCCATTCTATCT (sugars ldlldddddddlddlll, PS) | 21 |  |  | 
